Measured values published in US9605047B2, “Compositions and methods for treating hypertension” (The Brigham and Women's Hospital, Inc., priority 2012, dated 2017).
Entries after “also recorded” stand apart in the source; their conditions may differ.

Columns and labels:
[1] = test system: CYP11B2 promoter; experiment: Chromatin immunoprecipitation assay, CYP11B2 promoter; format: cell-based, human; conditions: ET-1 10 nM, 24 h; vs V 16.3±9.8; n=3
Protocol: Chromatin immunoprecipitation assay. Chromatin immunoprecipitation assays were performed using the QuikChIP assay (Imgenex) according to the manufacturer's instructions. PCR amplification was performed on the proximal region of the CYP11B2 promoter region containing the gonadotrope-specific element ^51. The primers used were: forward 5′-[…]-3′ (SEQ ID NO:2) and reverse 5′-[…]-3′ (SEQ ID NO: 3). CYP11B2 primers used for PCR were forward: 5′ […]-3′ (SEQ ID NO: 4) and reverse: 5′-[…]-3′ (SEQ ID NO:5).

[2] = test system: HPAECs; experiment: 3-Nitrotyrosine immunohistochemistry in HPAECs; format: cell-based, human; conditions: V 24.1±3.3, n=5
Protocol: 3-Nitrotyrosine immunohistochemistry. Cells grown to confluence on glass chamber slides were fixed following treatments and anti-3-nitrotyrosine immunohistochemistry (Santa Cruz Biotechnology) was performed using the 3,3′-diaminobenzidine substrate method (Vector laboratories) as described previously.^1

[3] = test system: HPAECs; experiment: Amplex Red assay of hydrogen peroxide levels in HPAECs; format: cell-based, human; conditions: ET-1 10 nM, HPAECs; p=0.43, n=4
Protocol: Human pulmonary artery endothelial cells (HPAECs) (Lonza) (male donors) were grown to confluence using phenol-free EGM-2 medium supplemented with 5% fetal bovine serum at 37° C., 5% CO2. Cells were passaged twice-weekly using 0.5% trypsin/EDTA, and experiments were performed on cells from passages 4-10. Aldosterone (Steraloids) and ET-1 (1-100 nM) (Sigma-Aldrich) were dissolved in dimethylsufloxide (10 nmol/L) and deoxygenated water, respectively, which served as vehicle controls. Cells were treated with aldosterone (10^−−10^−7 mol/L) for 24 h and in selected experiments co-incubated with the mineralocorticoid receptor inhibitor spironolactone (10 μM/l) (Sigma-Aldrich).

[4] = test system: ETB-dependent NO. generation in HPAECs; experiment: NO. metabolites (NO2−, NO3−) in ET-1-stimulated HPAECs; format: cell-based, human
Protocol: Cell culture and treatments. Human pulmonary artery endothelial cells (HPAECs) (Lonza) (male donors) were grown to confluence using phenol-free EGM-2 medium supplemented with 5% fetal bovine serum at 37° C., 5% CO2. Cells were passaged twice-weekly using 0.5% trypsin/EDTA, and experiments were performed on cells from passages 4-10. Aldosterone (Steraloids) and ET-1 (1-100 nM) (Sigma-Aldrich) were dissolved in dimethylsufloxide (10 nmol/L) and deoxygenated water, respectively, which served as vehicle controls. Cells were treated with aldosterone (10^−−10^−7 mol/L) for 24 h and in selected experiments co-incubated with the mineralocorticoid receptor inhibitor spironolactone (10 μM/l) (Sigma-Aldrich).

[5] = test system: CYP11B2 (aldosterone synthase); experiment: CYP11B2 protein expression in HPAECs by Western analysis; format: cell-based, human; conditions: 24 h, n=3
Protocol: (§1) Cell culture and treatments. Human pulmonary artery endothelial cells (HPAECs) (Lonza) (male donors) were grown to confluence using phenol-free EGM-2 medium supplemented with 5% fetal bovine serum at 37° C., 5% CO2. Cells were passaged twice-weekly using 0.5% trypsin/EDTA, and experiments were performed on cells from passages 4-10. Aldosterone (Steraloids) and ET-1 (1-100 nM) (Sigma-Aldrich) were dissolved in dimethylsufloxide ([…]) and deoxygenated water, respectively, which served as vehicle controls. Cells were treated with aldosterone (10^−−10^−7 mol/L) for 24 h and in selected experiments co-incubated with the mineralocorticoid receptor inhibitor spironolactone (10 μM/l) (Sigma-Aldrich).
(§2) Immunoblotting. Proteins were size fractionated electrophoretically using SDS-PAGE and transferred to polyvinylidene fluoride membranes. The membranes were incubated with anti-ETA (Santa Cruz Biotechnology), anti-ETB (Santa Cruz Biotechnology), anti-NOX4 (Santa Cruz Biotechnology), anti-p22P^phox (Santa Cruz), anti-eNOS (Cell Signaling), anti-PGC-1α (Santa Cruz Biotechnology), and anti-SF (Santa Cruz Biotechnology) antibodies overnight at 4° C. and visualized using the ECL detection system (Amersham Biosciences). In experiments to assess ETA expression, purified ETA protein (Novus Biological) was loaded to serve as an internal control.

[6] = test system: eNOS; experiment: eNOS activity ([14C] arginine, NOS activity kit) in HPAECs; format: cell-based, human; conditions: ET-1 (10 nM) stimulated HPAECs, without or with aldosterone; n=3
Protocol: eNOS activity. eNOS activity was measured using the NOS activity kit (Cayman) according to the manufacturer's instructions with some modifications. Cells were washed with PBS containing 1 mM EDTA, transferred to a microcentrifuge tube, and centrifuged at 14,000×g at 4° C. for 2 min. The supernatant was decanted and homogenization buffer (250 mM Tris-HCl, pH 7.4, 6 μM BH4, 2 μM flavin adenine dinucleotide, and 2 μM flavin adenine mononucleotide) was added to the cell pellets. […] The samples were then centrifuged at 14,000×g for 30 seconds and radioactivity of the eluant was quantified in a liquid scintillation counter (Beckman-Coulter).

[7] = test system: PGC-1α and steroidogenesis factor-1 (SF); experiment: PGC-1α and SF protein expression in HPAECs by Western analysis; format: cell-based, human; conditions: for PGC-1α protein expression levels: 24 h, n=3
Protocol: as §1, §2

[8] = test system: HPAECs; experiment: Aldosterone levels in HPAEC culture medium by enzyme immunoassay; format: cell-based, human; conditions: 24 h, n=4
[9] = test system: PGC-1α / steroidogenesis factor-1 (SF); experiment: Co-immunoprecipitation of PGC-1α with SF in HPAECs; format: cell-based, human; conditions: ET-1 10 nM, 24 h, n=3
Protocol: Co-immunoprecipitation of proteins. Cell monolayers were washed twice with ice-cold PBS and incubated on ice with RIPA buffer supplemented with various protease inhibitors (Millpore). Cells were scraped with a rubber policeman and samples were rotated at 4° C. for 15 min. Lysates were centrifuged at 14,000×g at 4° C. for 15 min and the then pre-cleared with a 50% slurry of Protein G agarose beads (Santa Cruz Biotechnology) mixed with PBS. Following removal of the beads by centrifugation, cell lysates were incubated with an anti-ETB or anti-PGC-1α antibody (Santa Cruz Biotechnology) overnight at 4° C. The immunocomplex was captured by incubating lysates with 50% Protein G agarose bead slurry at 4° C. for 1 h. Beads were collected by pulse centrifugation, resuspended in non-reducing sample buffer, and then boiled for 10 min to dissociate the immunocomplex from the beads. Western analysis was performed with an anti-SF (Santa Cruz) or anti-sulfenic acid (R—SOH) antibody (Millpore) as described above.

[10] = test system: rats with SU-5416/hypoxia-induced PAH; experiment: SU-5416/hypoxia-induced PAH, prevention study with eplerenone; format: in vivo, rat; conditions: SU-5416 (20 mg/kg s.c.) plus chronic hypoxia 21 days vs normal rats; n=5
[11] = test system: ETB-dependent NO. synthesis in COS-7 cells; experiment: ETB-dependent NO2− formation in transfected COS-7 cells after H2O2; format: cell-based, monkey (African green monkey); conditions: COS-7 cells co-expressing WT-eNOS; H2O2 200 μmol/L 60 min, then ET-1 10 nM 10 min; n=4
Protocol: NO. metabolites. Nitrite (NO2^−) and nitrate (NO3^−) were measured in cell culture medium containing 2% fetal bovine serum and L-arginine (1 mmol/l) (Sigma-Aldrich) by 1(H)-naphthotriazole fluorescence (Cayman) as previously reported.^1 To measure NO2^− levels in whole lung tissue, lung specimens were harvested from rats and snap frozen in liquid nitrogen. Samples were thawed, homogenized in PBS (pH 7.4), and centrifuged at 14,000×g at 4° C. for 20 min. The supernatant was ultrafiltered using a 30 kDa molecular weight filter (Millpore), and the eluant was used to measure NO2^− levels according to manufacturer's instructions (Cayman).
Site-directed mutagenesis and transfection. cDNAs encoding wild type (WT) eNOS and WT-ETB from human were cloned into the mammalian expression vector pCMV6 (Origene). The C405A-ETB mutant was purchased from Genewiz (South Plainfield, N.J.). […] After this time, the medium was replaced with Dulbecco's Modified Eagle Medium (Gibco) supplemented with 10% FBS, and experiments were performed after 24 h.

[12] = target: T1, ETB (Homo sapiens, UniProt P24530); experiment: Disulfide bond formation of ETB in transfected COS-7 cells exposed to H2O2; format: cell-based; conditions: H2O2 200 μmol/L for 20 min
T1 construct: host or cells: COS-7
T1 sequence (P24530 27-442): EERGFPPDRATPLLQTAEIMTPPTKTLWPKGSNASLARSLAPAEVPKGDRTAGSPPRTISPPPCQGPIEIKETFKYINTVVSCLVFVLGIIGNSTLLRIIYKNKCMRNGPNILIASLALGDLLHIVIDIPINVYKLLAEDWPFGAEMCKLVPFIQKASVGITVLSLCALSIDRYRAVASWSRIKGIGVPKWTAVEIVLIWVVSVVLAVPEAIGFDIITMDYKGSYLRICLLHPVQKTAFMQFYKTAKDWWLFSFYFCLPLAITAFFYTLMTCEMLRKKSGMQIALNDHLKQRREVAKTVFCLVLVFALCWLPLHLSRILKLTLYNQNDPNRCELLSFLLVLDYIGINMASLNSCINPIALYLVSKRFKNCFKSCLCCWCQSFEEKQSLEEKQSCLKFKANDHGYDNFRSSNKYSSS
Protocol: Western analysis to detect ETB disfulfide bond formation. Western analysis to detect ETB disulfide bond formation was performed as described previously.^7 Briefly, protein extracts from cells were lysed in alkylating buffer containing 0.1 M Tris-HCL, pH 6.8, 1% SDS, 100 mM iodoacetamide, and 100 mM N-ethylmaleimide, and sonicated on ice for 5 min followed by a 30-min incubation at 25° C. Alkylated proteins were then precipitated with acetone. Proteins were resuspended in 50 μl of 0.1 M Tris-HCl, pH 7.4, 1% SDS; and disulfides were reduced with 5 mM tris(2-carboxyethyl)phosphine hydrochloride (TCEP). Following a 20-min incubation at 25° C., TCEP was removed with a Micro Bio-Spin™ column 6 (Bio-Rad), and 1% SDS was added to the eluant. The cysteines previously participating in a disulfide bond, now reduced, were labeled with 1 mM polyethylene glycol-conjugated maleimide (molecular mass 10 kDa) (Fluka). After a 1-h incubation at 25° C., proteins were precipitated with acetone, resuspended in 50 μl of non-reducing SDS electrophoresis buffer, and boiled for 10 min. Protein samples were then size-fractionated electrophoretically using SDS-PAGE, and transferred to a polyvinylidene fluoride membrane. […]

endothelin-1 [ET-1]
SF binding to the CYP11B2 promoter [1]: 61.6±9.3 arb. units
levels of 3-nitrotyrosine [2]: 31.2±3.2 arb. units
H2O2 levels compared to V-treated cells [3]: no effect
NO2^− generation ([4]; ET-1 10 nM, maximum effect at 10 min, HPAECs, vs V 29.4±3.6, n=3): 139.4±31.8 μM/μg protein
total NO. metabolite (NOx: NO2^−+NO3^−) formation ([4]; ET-1 (10 nM) stimulated HPAECs, without or with aldosterone, n=3): 157.9±12.7 μM/μg protein
NO2^−/NO3^− ratio compared to V ([4]; ET-1 alone, HPAECs): did not affect
CYP11B2 protein expression levels ([5]; ET-1 1 nM): 157.3±27.5 % control
CYP11B2 protein expression levels ([5]; ET-1 10 nM): 180.4±13.4 % control
CYP11B2 protein expression levels ([5]; ET-1 100 nM): 234.8±4.3 % control
eNOS activity [6]: 18.5±3.5 [^14C] L-citrulline c.p.m./μg protein
PGC-1α protein expression levels ([7]; ET-1 1 nM): 176.5±52.8 % control
PGC-1α protein expression levels ([7]; ET-1 10 nM): 224.7±68.1 % control
PGC-1α protein expression levels ([7]; ET-1 100 nM): 296.7±145.8 % control
SF protein levels ([7]; ET-1, 24 h): no effect
aldosterone levels in the cell culture medium ([8]; ET-1 1 nM): 241.1±44.8 % control
aldosterone levels in the cell culture medium ([8]; ET-1 10 nM): 283.5±94.7 % control
aldosterone levels in the cell culture medium ([8]; ET-1 100 nM): 396.0±116.5 % control
association between PGC-1α and SF (co-immunoprecipitation) [9]: 1260±104 arb. units

Cc1cc(C)c(/C=C2\C(=O)Nc3ccccc32)[nH]1 [SU-5416]
increase in plasma aldosterone levels [10]: 418%

B1: WT-ETB: wild type human ETB expressed in COS-7 cells (protein)
chain: EERGFPPDRATPLLQTAEIMTPPTKTLWPKGSNASLARSLAPAEVPKGDRTAGSPPRTISPPPCQGPIEIKETFKYINTVVSCLVFVLGIIGNSTLLRIIYKNKCMRNGPNILIASLALGDLLHIVIDIPINVYKLLAEDWPFGAEMCKLVPFIQKASVGITVLSLCALSIDRYRAVASWSRIKGIGVPKWTAVEIVLIWVVSVVLAVPEAIGFDIITMDYKGSYLRICLLHPVQKTAFMQFYKTAKDWWLFSFYFCLPLAITAFFYTLMTCEMLRKKSGMQIALNDHLKQRREVAKTVFCLVLVFALCWLPLHLSRILKLTLYNQNDPNRCELLSFLLVLDYIGINMASLNSCINPIALYLVSKRFKNCFKSCLCCWCQSFEEKQSLEEKQSCLKFKANDHGYDNFRSSNKYSSS
decrease of ET-1-stimulated NO2^− formation by H2O2 compared to V-treated cells [11]: 78.0%
disulfide bond formation of ETB [12]: formation of one or two disulfide bonds; also recorded: formation of 1 or 2 disulfide bonds

B2: C405A-ETB (protein)
chain: EERGFPPDRATPLLQTAEIMTPPTKTLWPKGSNASLARSLAPAEVPKGDRTAGSPPRTISPPPCQGPIEIKETFKYINTVVSCLVFVLGIIGNSTLLRIIYKNKCMRNGPNILIASLALGDLLHIVIDIPINVYKLLAEDWPFGAEMCKLVPFIQKASVGITVLSLCALSIDRYRAVASWSRIKGIGVPKWTAVEIVLIWVVSVVLAVPEAIGFDIITMDYKGSYLRICLLHPVQKTAFMQFYKTAKDWWLFSFYFCLPLAITAFFYTLMTCEMLRKKSGMQIALNDHLKQRREVAKTVFCLVLVFALCWLPLHLSRILKLTLYNQNDPNRCELLSFLLVLDYIGINMASLNSCINPIALYLVSKRFKNCFKSCLCCWAQSFEEKQSLEEKQSCLKFKANDHGYDNFRSSNKYSSS
decrease of ET-1-stimulated NO2^− formation by H2O2 compared to V-treated cells [11]: 45.0%
disulfide bond formation of ETB [12]: resistant to the formation of disulfide bonds; also recorded: resistant to disulfide bond formation
